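Method: 48-hour compound exposure of cells in 96-well plates, five concentrations, linear interpolation of endpoints. GI50 is the concentration that inhibits growth by half. The concentration for full growth arrest is given as TGI.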
Columns and labels:
Test in all cases: NCI anticancer screen, dose series, 48 h
DU-145 prostate = test system: DU-145 prostate
HOP-92 NSCLC = test system: HOP-92 NSCLC
HT29 colon = test system: HT29 colon
MDA-MB-231 breast = test system: MDA-MB-231 breast
SF-295 CNS = test system: SF-295 CNS
SK-MEL-5 melanoma = test system: SK-MEL-5 melanoma
SK-OV-3 ovarian = test system: SK-OV-3 ovarian
SNB-75 CNS = test system: SNB-75 CNS
UO-31 renal = test system: UO-31 renal
CAKI-1 renal = test system: CAKI-1 renal

Cc1nc(Nc2nc3ccccc3o2)nc(-c2cccc([N+](=O)[O-])c2)c1C(=O)Nc1ccc(F)c(Cl)c1
GI50 (DU-145 prostate): 2.95 µM
TGI (DU-145 prostate): > 100 µM
GI50 (HOP-92 NSCLC): 1.39 µM
TGI (HOP-92 NSCLC): 4.66 µM
GI50 (HT29 colon): 2.21 µM
TGI (HT29 colon): 19.5 µM
GI50 (MDA-MB-231 breast): 1.88 µM
TGI (MDA-MB-231 breast): 4.82 µM
GI50 (SF-295 CNS): 1.65 µM
TGI (SF-295 CNS): 7.09 µM
GI50 (SK-MEL-5 melanoma): 1.71 µM
TGI (SK-MEL-5 melanoma): 3.45 µM
GI50 (SK-OV-3 ovarian): 2.8 µM
TGI (SK-OV-3 ovarian): > 100 µM
GI50 (SNB-75 CNS): 2.27 µM
TGI (SNB-75 CNS): 9.62 µM
GI50 (UO-31 renal): 1.87 µM
TGI (UO-31 renal): 7.09 µM

CNC(=O)OCC1C2=C(C(=O)C(C)=C(N)C2=O)N2CC3C(N3C)C12OC (stereo unspecified)
TGI (CAKI-1 renal): 32.7 µM
TGI (DU-145 prostate): 55 µM
TGI (HOP-92 NSCLC): > 100 µM
TGI (HT29 colon): 34.7 µM
TGI (MDA-MB-231 breast): > 100 µM
TGI (SF-295 CNS): 67 µM
TGI (SK-MEL-5 melanoma): 23.8 µM
TGI (SK-OV-3 ovarian): > 100 µM

COc1ccc(OC)c(Nc2nc(-c3c(C)nc4sccn34)cs2)c1
GI50 (DU-145 prostate): > 100 µM
TGI (DU-145 prostate): > 100 µM
GI50 (HOP-92 NSCLC): 8.63 µM
TGI (HOP-92 NSCLC): 98.4 µM
GI50 (HT29 colon): > 100 µM
TGI (HT29 colon): > 100 µM
GI50 (MDA-MB-231 breast): > 100 µM
TGI (MDA-MB-231 breast): > 100 µM
GI50 (SF-295 CNS): 41.4 µM
TGI (SF-295 CNS): > 100 µM
GI50 (SK-MEL-5 melanoma): 34.9 µM
TGI (SK-MEL-5 melanoma): > 100 µM
GI50 (SK-OV-3 ovarian): 24.6 µM
TGI (SK-OV-3 ovarian): > 100 µM
GI50 (SNB-75 CNS): 3.38 µM
TGI (SNB-75 CNS): 33.7 µM
GI50 (UO-31 renal): 29 µM
TGI (UO-31 renal): > 100 µM

COC(=O)[C@@H](C)C[C@H](Cc1ccccc1)NC(=O)c1csc([C@@H](C[C@H](C(C)C)N(C)C(=O)[C@H](C)NC(=O)[C@H]2CCCCN2C)OC(C)=O)n1
GI50 (DU-145 prostate): 1.05 µM
TGI (DU-145 prostate): > 25 µM
GI50 (HOP-92 NSCLC): 0.982 µM
TGI (HOP-92 NSCLC): > 25 µM
GI50 (HT29 colon): 0.816 µM
TGI (HT29 colon): > 25 µM
GI50 (MDA-MB-231 breast): 1.24 µM
TGI (MDA-MB-231 breast): > 25 µM
GI50 (SF-295 CNS): 3.95 µM
TGI (SF-295 CNS): > 25 µM
GI50 (SK-MEL-5 melanoma): 0.86 µM
TGI (SK-MEL-5 melanoma): > 25 µM
GI50 (SK-OV-3 ovarian): 11 µM
TGI (SK-OV-3 ovarian): > 25 µM
GI50 (SNB-75 CNS): 0.47 µM
TGI (SNB-75 CNS): 1.71 µM
GI50 (UO-31 renal): 19.2 µM
TGI (UO-31 renal): > 25 µM

Cc1cc(OCc2nnc3n2N=C(c2ccc(Cl)cc2Cl)CS3)ccc1Cl
GI50 (CAKI-1 renal): 44.2 µM
TGI (CAKI-1 renal): > 100 µM
GI50 (DU-145 prostate): 69.7 µM
TGI (DU-145 prostate): > 100 µM
GI50 (HOP-92 NSCLC): > 100 µM
TGI (HOP-92 NSCLC): > 100 µM
GI50 (HT29 colon): 59.8 µM
TGI (HT29 colon): > 100 µM
GI50 (MDA-MB-231 breast): 30.8 µM
TGI (MDA-MB-231 breast): 90.4 µM
GI50 (SF-295 CNS): 28.4 µM
TGI (SF-295 CNS): > 100 µM
GI50 (SK-MEL-5 melanoma): 25.6 µM
TGI (SK-MEL-5 melanoma): > 100 µM
GI50 (SK-OV-3 ovarian): > 100 µM
TGI (SK-OV-3 ovarian): > 100 µM
GI50 (UO-31 renal): 34 µM
TGI (UO-31 renal): > 100 µM

CN1C(Cl)=NS(=O)(=O)c2ccccc21
TGI (CAKI-1 renal): 36.6 µM
TGI (DU-145 prostate): > 100 µM
TGI (HOP-92 NSCLC): > 100 µM
TGI (HT29 colon): > 100 µM
TGI (MDA-MB-231 breast): > 100 µM
TGI (SF-295 CNS): > 100 µM
TGI (SK-MEL-5 melanoma): > 100 µM
TGI (SK-OV-3 ovarian): > 100 µM
TGI (UO-31 renal): > 100 µM

COc1cc2c3c(n(CCCN=[N+]=[N-])c(=O)c2cc1OC)-c1ccc(N(C)C)cc1C3=O
GI50 (DU-145 prostate): > 100 µM
TGI (DU-145 prostate): > 100 µM
GI50 (HOP-92 NSCLC): > 100 µM
TGI (HOP-92 NSCLC): > 100 µM
GI50 (HT29 colon): > 100 µM
TGI (HT29 colon): > 100 µM
GI50 (MDA-MB-231 breast): > 100 µM
TGI (MDA-MB-231 breast): > 100 µM
GI50 (SF-295 CNS): > 100 µM
TGI (SF-295 CNS): > 100 µM
GI50 (SK-MEL-5 melanoma): 87.1 µM
TGI (SK-MEL-5 melanoma): > 100 µM
GI50 (SK-OV-3 ovarian): > 100 µM
TGI (SK-OV-3 ovarian): > 100 µM
GI50 (SNB-75 CNS): 55.9 µM
TGI (SNB-75 CNS): > 100 µM
GI50 (UO-31 renal): > 100 µM
TGI (UO-31 renal): > 100 µM

CN(/N=N/c1nc(OCc2ccccc2)c2[nH]cnc2n1)C(=O)Oc1ccc([N+](=O)[O-])cc1
GI50 (CAKI-1 renal): 10.9 µM
TGI (CAKI-1 renal): 35.4 µM
GI50 (DU-145 prostate): 9.02 µM
TGI (DU-145 prostate): 19.5 µM
GI50 (HOP-92 NSCLC): 7.17 µM
TGI (HOP-92 NSCLC): 26.6 µM
GI50 (MDA-MB-231 breast): 5.78 µM
TGI (MDA-MB-231 breast): 18.6 µM
GI50 (SF-295 CNS): 11.1 µM
TGI (SF-295 CNS): 33.6 µM
GI50 (SK-MEL-5 melanoma): 6.89 µM
TGI (SK-MEL-5 melanoma): 16.3 µM
GI50 (SK-OV-3 ovarian): 10.4 µM
TGI (SK-OV-3 ovarian): 28.6 µM
GI50 (UO-31 renal): 6.58 µM
TGI (UO-31 renal): 13.9 µM

O=C1C=CC(O)C2C1CC13SSC4(CC5C(=O)C=CC(O)C5N4C1=O)C(=O)N23 (stereo unspecified)
TGI (CAKI-1 renal): 0.957 µM
TGI (DU-145 prostate): 1.07 µM
TGI (HOP-92 NSCLC): 0.573 µM
TGI (MDA-MB-231 breast): 0.947 µM
TGI (SF-295 CNS): 2.94 µM
TGI (SK-MEL-5 melanoma): 1.06 µM
TGI (SK-OV-3 ovarian): 14.1 µM
TGI (SNB-75 CNS): 5.14 µM
TGI (UO-31 renal): 1.27 µM

ClCc1ccc(Cn2cnc3c(Cl)nc(Cl)nc32)cc1
GI50 (CAKI-1 renal): 9.17 µM
TGI (CAKI-1 renal): 21.3 µM
GI50 (DU-145 prostate): 5.69 µM
TGI (DU-145 prostate): 17.8 µM
GI50 (HT29 colon): 2.9 µM
TGI (HT29 colon): > 100 µM
GI50 (MDA-MB-231 breast): 1.81 µM
TGI (MDA-MB-231 breast): 3.63 µM
GI50 (SF-295 CNS): 7.2 µM
TGI (SF-295 CNS): 19.5 µM
GI50 (SK-MEL-5 melanoma): 6.49 µM
TGI (SK-MEL-5 melanoma): 19.2 µM
GI50 (SK-OV-3 ovarian): 13.3 µM
TGI (SK-OV-3 ovarian): 29.6 µM
GI50 (SNB-75 CNS): 3.13 µM
TGI (SNB-75 CNS): 9.32 µM
GI50 (UO-31 renal): 19.3 µM
TGI (UO-31 renal): 35.5 µM

COc1cc(Cl)cc(-c2nn(-c3cccc(NC(=O)Nc4ccc(Cl)c(C(F)(F)F)c4)c3)cc2-c2ccncc2)c1
GI50 (CAKI-1 renal): 0.816 µM
TGI (CAKI-1 renal): 9.43 µM
GI50 (DU-145 prostate): 1.86 µM
TGI (DU-145 prostate): 14 µM
GI50 (HT29 colon): 1.14 µM
TGI (HT29 colon): 4.38 µM
GI50 (MDA-MB-231 breast): 1.44 µM
TGI (MDA-MB-231 breast): 3.74 µM
GI50 (SF-295 CNS): 0.465 µM
TGI (SF-295 CNS): 2 µM
GI50 (SK-MEL-5 melanoma): 1.54 µM
TGI (SK-MEL-5 melanoma): 2.93 µM
GI50 (SK-OV-3 ovarian): 3.15 µM
TGI (SK-OV-3 ovarian): 9.85 µM
GI50 (SNB-75 CNS): 1.77 µM
TGI (SNB-75 CNS): 11.1 µM
GI50 (UO-31 renal): 1.66 µM
TGI (UO-31 renal): 10.9 µM

N#Cc1cc(S(=O)(=O)Nc2nc3ccccc3s2)c(SCc2ccccc2)cc1Cl
GI50 (CAKI-1 renal): 18.6 µM
TGI (CAKI-1 renal): 45 µM
GI50 (DU-145 prostate): 24.4 µM
TGI (DU-145 prostate): 58.6 µM
GI50 (HOP-92 NSCLC): 24.1 µM
TGI (HOP-92 NSCLC): 43.3 µM
GI50 (HT29 colon): 23.6 µM
TGI (HT29 colon): 55.8 µM
GI50 (MDA-MB-231 breast): 26.7 µM
TGI (MDA-MB-231 breast): 82.6 µM
GI50 (SF-295 CNS): 13.6 µM
TGI (SF-295 CNS): 44.1 µM
GI50 (SK-MEL-5 melanoma): 15.4 µM
TGI (SK-MEL-5 melanoma): 31 µM
GI50 (SNB-75 CNS): 26.2 µM
TGI (SNB-75 CNS): 63.3 µM
GI50 (UO-31 renal): 17.8 µM
TGI (UO-31 renal): 42.1 µM
